The record followed here is patent US11680060B2, “Bicycloheptane pyrrolidine orexin receptor agonists” (Merck Sharp & Dohme LLC, priority 2020, dated 2023).

The target of this assay is human OX2R (Homo sapiens (Human), UniProt O43614). Kind of assay: IPOne (IP-1) assay in CHO cells expressing human OX2R. In kind it is cell-based. Conditions: for Emax: CHO, read-out: Emax (%); for IC50: CHO cells expressing human OX2R, IP-One detection, 2 hours incubation, EC50 = inflection point of four parameter logistic fit, read-out: hOX2R_IP_IC50. The gist of the method:
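CHO cells stably expressing human OX2R were stimulated with compound (10-point ½-log dilutions) for 2 h at 37 °C. IP-1 accumulation was read by HTRF (IP-One, 665/620 nm). EC50 from a four-parameter fit; % effect relative to 1 μM reference agonist control.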

The mark [1] stands for this setting: percentage of mean max effect of a reference compound at 1 uM (100% activity by comparison to Orexin A), human OX2R.

By Emax is commonly meant the size of the effect at its maximum, as opposed to the concentration needed.

Sequence of human OX2R (O43614 whole entry): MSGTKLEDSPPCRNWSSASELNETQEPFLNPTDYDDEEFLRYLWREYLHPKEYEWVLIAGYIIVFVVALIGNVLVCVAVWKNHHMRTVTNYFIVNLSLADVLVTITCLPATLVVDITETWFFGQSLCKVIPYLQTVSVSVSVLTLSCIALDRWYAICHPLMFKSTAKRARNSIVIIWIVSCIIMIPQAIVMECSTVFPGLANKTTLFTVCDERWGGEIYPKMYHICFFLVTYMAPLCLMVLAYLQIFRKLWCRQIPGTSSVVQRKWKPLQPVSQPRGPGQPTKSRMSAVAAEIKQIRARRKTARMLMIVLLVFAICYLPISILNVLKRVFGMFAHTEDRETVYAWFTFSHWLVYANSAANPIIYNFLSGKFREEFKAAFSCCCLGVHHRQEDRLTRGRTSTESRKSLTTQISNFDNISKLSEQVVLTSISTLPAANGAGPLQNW

As to `COC(=O)N1[C@H](C)C[C@H](NS(C)(=O)=O)[C@@H]1COC1CCC2(c3ncc(F)c(C4CC4)n3)CC2C1` (stereo partly drawn) [Example 74, methyl (2R,3S,5R)-2-(((6-(4-cyclopropyl-5-fluoropyrimidin-2-yl)bicyclo[4.1.0]heptan-3-yl)oxy)methyl)-5-methyl-3-(methylsulfonamido)pyrrolidine-1-carboxylate], under setting [1], the Emax was determined as 84%. `COC(=O)N1[C@H](C)C[C@H](NS(=O)(=O)N(C)C)[C@@H]1COC1CCC2(c3ncccn3)CC2C1` (single isomer, unassigned) [Example 187]: the IC50 stood at 2.1 nM. Besides, under setting [1], the “Emax (%)” value is 100.0%. On to `COC(=O)N1[C@H](C)C[C@H](NS(=O)(=O)N(C)C)[C@@H]1COC1CCC2(c3cc(F)cc(F)c3)CC2C1` (stereo partly drawn) [Example 4, methyl (2R,3S,5R)-2-(((6-(3,5-difluorophenyl)bicyclo[4.1.0]heptan-3-yl)oxy)methyl)-3-((N,N-dimethylsulfamoyl)amino)-5-methylpyrrolidine-1-carboxylate], for which the Emax under setting [1] was 97.3%. As for `COC(=O)N1[C@H](C(F)F)C[C@H](NS(=O)(=O)C(C)C)[C@@H]1COC1CCC2(c3ncc(F)cn3)CC2C1` (stereo partly drawn) [Example 120, methyl (2R,3S,5S)-5-(difluoromethyl)-2-(((6-(5-fluoropyrimidin-2-yl)bicyclo[4.1.0]heptan-3-yl)oxy)methyl)-3-((1-methylethyl)sulfonamido)pyrrolidine-1-carboxylate], the maximum response (Emax) under setting [1] came to 102%.

For the molecule `CCS(=O)(=O)N[C@H]1C[C@@H](C)N(C(=O)OC)[C@H]1CO[C@@H]1CC[C@]2(c3ncc(F)cn3)C[C@@H]2C1` [Example 47, methyl (2R,3S,5R)-3-(ethylsulfonamido)-2-((((1R,3R,6S)-6-(5-fluoropyrimidin-2-yl)bicyclo[4.1.0]heptan-3-yl)oxy)methyl)-5-methylpyrrolidine-1-carboxylate], the Emax under setting [1] turned out to be 98.4%. For `COC(=O)N1[C@H](C)C[C@H](NS(C)(=O)=O)[C@@H]1COC1CCC2(c3ncccn3)CC2C1` (single isomer, unassigned) [Example 183], the IC50 was 2260 nM. Also, the Emax under setting [1] turned out to be 89.7%. For the molecule `CCS(=O)(=O)N[C@H]1C[C@@H](C(F)F)N(C(=O)OC(C)C)[C@H]1CO[C@H]1CC[C@@]2(c3ncc(F)cn3)C[C@H]2C1` (single isomer, unassigned) [Example 118], the IC50 worked out at 0.99 nM. For the same molecule, under setting [1], the Emax was 100%.

With `COC(=O)N1[C@H](C(F)(F)F)C[C@H](NS(C)(=O)=O)[C@@H]1CO[C@H]1CC[C@@]2(c3ncc(F)cn3)C[C@H]2C1` (single isomer, unassigned) [Example 133], the IC50 stood at 2.6 nM. The maximum response (Emax) under setting [1] stood at 101%. In the same order, the values of `COC(=O)N1[C@H](C)C[C@H](NS(C)(=O)=O)[C@@H]1CO[C@H]1CC[C@@]2(c3ncc(C#N)cn3)C[C@H]2C1` [Example 190, methyl (2R,3S,5R)-2-((((1S,3S,6R)-6-(5-cyanopyrimidin-2-yl)bicyclo[4.1.0]heptan-3-yl)oxy)methyl)-5-methyl-3-(methylsulfonamido)pyrrolidine-1-carboxylate] are 49.5 nM and 103%. For `CC(C)OC(=O)N1[C@H](C)C[C@H](NS(=O)(=O)CF)[C@@H]1CO[C@H]1CC[C@@]2(c3ncc(Cl)cn3)C[C@H]2C1` (single isomer, unassigned) [Example 95], the IC50 was 1.8 nM. The maximal effect (Emax) under setting [1] stood at 101%. As to `C[C@@H]1C[C@H](NS(C)(=O)=O)[C@H](CO[C@H]2CC[C@@]3(c4ncc(F)cn4)C[C@H]3C2)N1C(=O)OCC1(F)CC1` [Example 61, (1-fluorocyclopropyl)methyl (2R,3S,5R)-2-((((1S,3S,6R)-6-(5-fluoropyrimidin-2-yl)bicyclo[4.1.0]heptan-3-yl)oxy)methyl)-5-methyl-3-(methylsulfonamido)pyrrolidine-1-carboxylate], the Emax under setting [1] turned out to be 104%. Turning to `COC(=O)N1[C@H](C)C[C@H](NS(C)(=O)=O)[C@@H]1COC1CCC2(c3ncc(F)cn3)CC2C1` (stereo partly drawn) [Example 135, methyl (2R,3S,5R)-2-(((6-(5-fluoropyrimidin-2-yl)bicyclo[4.1.0]heptan-3-yl)oxy)methyl)-5-methyl-3-(methylsulfonamido)pyrrolidine-1-carboxylate], under setting [1], the Emax is 99.5%. Still for that read-out and setting: as for `COC(=O)N1[C@H](C)C[C@H](NS(=O)(=O)N(C)C)[C@@H]1COC1CCC2(c3cnccn3)CC2C1` (stereo partly drawn) [Example 10, methyl (2R,3S,5R)-3-((N,N-dimethylsulfamoyl)amino)-5-methyl-2-(((6-(pyrazin-2-yl)bicyclo[4.1.0]heptan-3-yl)oxy)methyl)pyrrolidine-1-carboxylate], the figure is 85.6%. Consider `C[C@@H]1C[C@H](NS(C)(=O)=O)[C@H](CO[C@H]2CC[C@@]3(c4ncc(F)cn4)C[C@H]3C2)N1C(=O)OCC(F)C1CCC1` (stereo partly drawn) [Example 54, 2-cyclobutyl-2-fluoroethyl (2R,3S,5R)-2-((((1S,3S,6R)-6-(5-fluoropyrimidin-2-yl)bicyclo[4.1.0]heptan-3-yl)oxy)methyl)-5-methyl-3-(methylsulfonamido)pyrrolidine-1-carboxylate], for which the maximal effect (Emax) under setting [1] turned out to be 104%.

Take `COC(=O)N1[C@H](C)C[C@H](NS(=O)(=O)CF)[C@@H]1COC1CCC2(c3ncc(Cl)c(OC)n3)CC2C1` (stereo partly drawn) [Example 86, methyl (2R,3S,5R)-2-(((6-(5-chloro-4-methoxypyrimidin-2-yl)bicyclo[4.1.0]heptan-3-yl)oxy)methyl)-3-((fluoromethyl)sulfonamido)-5-methylpyrrolidine-1-carboxylate]: under setting [1], the Emax is 101%.

Take `COC(=O)N1[C@H](C)C[C@H](NS(C)(=O)=O)[C@@H]1COC1CCC2(c3ncccn3)CC2C1` (stereo partly drawn) [Example 184, methyl (2R,3S,5R)-5-methyl-3-(methylsulfonamido)-2-(((6-(pyrimidin-2-yl)bicyclo[4.1.0]heptan-3-yl)oxy)methyl)pyrrolidine-1-carboxylate]: the maximum response (Emax) under setting [1] came to 102%.

As to `CC(C)OC(=O)N1[C@H](C)C[C@H](NS(C)(=O)=O)[C@@H]1CO[C@@H]1CC[C@]2(c3ncc(Cl)cn3)C[C@@H]2C1` (single isomer, unassigned) [Example 150], the IC50 stood at 19.6 nM. Further, the maximal response (Emax) under setting [1] was 102%. With `COC(=O)N1[C@H](C)C[C@H](NS(C)(=O)=O)[C@@H]1COC1CCC2(c3ncc(F)c(C(F)F)n3)CC2C1` (stereo partly drawn) [Example 73, methyl (2R,3S,5R)-2-(((6-(4-(difluoromethyl)-5-fluoropyrimidin-2-yl)bicyclo[4.1.0]heptan-3-yl)oxy)methyl)-5-methyl-3-(methylsulfonamido)pyrrolidine-1-carboxylate], the maximal response (Emax) under setting [1] is 90.7%. Consider `COC(=O)N1[C@H](C)C[C@H](NS(=O)(=O)CF)[C@@H]1CO[C@H]1CC[C@@]2(c3ncc(Br)cn3)C[C@H]2C1` (single isomer, unassigned) [Example 87], for which the IC50 is 2 nM. Also, the maximal effect (Emax) under setting [1] worked out at 102%. `CC(C)OC(=O)N1[C@H](C)C[C@H](NS(C)(=O)=O)[C@@H]1COC1CCC2(c3ncc(F)cn3)CC2C1` (mixture of isomers) [Example 26, isopropyl (2R,3S,5R)-2-(((6-(5-fluoropyrimidin-2-yl)bicyclo[4.1.0]heptan-3-yl)oxy)methyl)-5-methyl-3-(methylsulfonamido)pyrrolidine-1-carboxylate]: the IC50 is 11.4 nM. Also, the maximal effect (Emax) under setting [1] came out at 101%.

Consider `CC(C)OC(=O)N1CCC[C@H](NS(=O)(=O)C2CC2)[C@@H]1COC1CCC2(c3ncc(F)cn3)CC2C1` (stereo partly drawn) [Example 122, isopropyl (2R,3S)-3-(cyclopropanesulfonamido)-2-(((6-(5-fluoropyrimidin-2-yl)bicyclo[4.1.0]heptan-3-yl)oxy)methyl)piperidine-1-carboxylate], for which the maximum response (Emax) under setting [1] worked out at 104%. For the molecule `CC(C)OC(=O)N1[C@H](C)C[C@H](NS(=O)(=O)C(F)F)[C@@H]1COC1CCC2(c3ncc(Cl)cn3)CC2C1` (stereo partly drawn) [Example 82, isopropyl (2R,3S,5R)-2-(((6-(5-chloropyrimidin-2-yl)bicyclo[4.1.0]heptan-3-yl)oxy)methyl)-3-((difluoromethyl)sulfonamido)-5-methylpyrrolidine-1-carboxylate], the Emax under setting [1] is 102%. `C[C@@H]1C[C@H](NS(C)(=O)=O)[C@H](CO[C@H]2CC[C@@]3(c4ncc(F)cn4)C[C@H]3C2)N1C(=O)OCC(C)(F)F` [Example 64, 2,2-difluoropropyl (2R,3S,5R)-2-((((1S,3S,6R)-6-(5-fluoropyrimidin-2-yl)bicyclo[4.1.0]heptan-3-yl)oxy)methyl)-5-methyl-3-(methylsulfonamido)pyrrolidine-1-carboxylate]: the maximal response (Emax) under setting [1] is 101%. As for `COC(=O)N1[C@H](C)C[C@H](NS(=O)(=O)CF)[C@@H]1COC1CCC2(c3ncc(F)c(OC)n3)CC2C1` (stereo partly drawn) [Example 85, methyl (2R,3S,5R)-2-(((6-(5-fluoro-4-methoxypyrimidin-2-yl)bicyclo[4.1.0]heptan-3-yl)oxy)methyl)-3-((fluoromethyl)sulfonamido)-5-methylpyrrolidine-1-carboxylate], the Emax under setting [1] worked out at 97.1%. Still for that read-out and setting: next, `CC(C)OC(=O)N1[C@H](C)C[C@H](NS(C)(=O)=O)[C@@H]1CO[C@H]1CC[C@@]2(c3ncc(F)cn3)C[C@H]2C1` [Example 28, isopropyl (2R,3S,5R)-2-((((1S,3S,6R)-6-(5-fluoropyrimidin-2-yl)bicyclo[4.1.0]heptan-3-yl)oxy)methyl)-5-methyl-3-(methylsulfonamido)pyrrolidine-1-carboxylate]: 103%. Regarding `COC(=O)N1[C@H](C)C[C@H](NS(=O)(=O)CF)[C@@H]1CO[C@H]1CC[C@@]2(c3ncc(Cl)c(OC)n3)C[C@H]2C1` (single isomer, unassigned) [Example 84], the IC50 is 4.6 nM. Besides, the Emax under setting [1] came to 101%.
